According to ChEMBL document CHEMBL1131966, “On topography and functionality in the B-D rings of cephalostatin cytotoxins” (Bioorg Med Chem Lett, 1999):

Legend:
P388 = assay: In vitro cytotoxicity against P388 leukemic cell line following a 6 day exposure.; type: functional, cell-based; settings: Mus musculus, P388, 144 h
RXF 393 = assay: In vitro cytotoxicity against Renal RXF-393 human tumors following a 2 day exposure.; type: functional; settings: RXF 393, 48 h
SF-295 = assay: In vitro cytotoxicity against CNS SF-295 human tumors following a 2 day exposure.; type: functional; settings: SF-295, 48 h
NCI [1] = assay: In vitro cytotoxicity against a subset of 10 cell lines (NCI-10) in human tumors following a 2 day exposure. Values in parentheses is the % cell lines affected.; type: functional; settings: 48 h
IGROV-1 = assay: In vitro cytotoxicity against Ovary IGROVIg OVI human tumors following a 2 day exposure.; type: functional; settings: IGROV-1, 48 h
A498 [2] = assay: In vitro cytotoxicity against Renal A-498 human tumors following a 2 day exposure.; type: functional; settings: A498, 48 h
HL-60 = assay: In vitro cytotoxicity against HL-60 leukemia human tumors following a 2 day exposure.; type: functional; settings: HL-60, 48 h
HT-29 [3] = assay: In vitro cytotoxicity against Colon HT-29 human tumors following a 6 day exposure.; type: functional; settings: HT-29, 144 h, read-out: ED50 (the source's name)
Homo sapiens [4] = organism: Homo sapiens; assay: In vitro cytotoxicity against Breast avg 1-3 types of human tumors following a 6 day exposure.; type: functional; settings: 144 h, read-out: ED50 (the source's name)
[5] = tested on: Panel NCI-60 (60 carcinoma cell lines); assay: In vitro cytotoxicity against a subset of 60 cell lines (NCI-60) in human tumors following a 2 day exposure. Values in parentheses is the % cell lines affected.; type: functional; settings: 48 h
LOX IMVI = assay: In vitro cytotoxicity against Skin LOX IMVI human tumors following a 2 day exposure.; type: functional; settings: 48 h
PC-3 [6] = assay: In vitro cytotoxicity against prostate PC-3 human tumors following a 2 day exposure.; type: functional; settings: PC-3, 48 h
HT-29 [7] = assay: In vitro cytotoxicity against Colon HT-29 human tumors following a 2 day exposure.; type: functional; settings: HT-29, 48 h
MCF7 = assay: In vitro cytotoxicity against Breast MCF-7 human tumors following a 2 day exposure.; type: functional; settings: 48 h
A549 [8] = assay: In vitro cytotoxicity against Lung A-549 human tumors following a 2 day exposure.; type: functional; settings: A549, 48 h
[9] = (§1) In vitro cytotoxicity against […] PACA-2 human tumors following a 6 day exposure; type: functional; settings: PaCa-2, 144 h, read-out: ED50 (the source's name)
Homo sapiens [10] = organism: Homo sapiens; assay: In vitro cytotoxicity against various human tumors (6-8 lines) as determined in the Purdue cell culture laboratory, following a 6 day exposure; type: functional; settings: 144 h, read-out: ED50 (the source's name)
PC-3 [11] = assay: In vitro cytotoxicity against prostate PC-3 human tumors following a 6 day exposure; type: functional; settings: PC-3, 144 h, read-out: ED50 (the source's name)
A549 [12] = assay: In vitro cytotoxicity against Lung A-549 human tumors following a 6 day exposure.; type: functional; settings: A549, 144 h, read-out: ED50 (the source's name)
MIA PaCa-2 = assay: as §1; type: functional; settings: MIA PaCa-2, 144 h, read-out: ED50 (the source's name)
A498 [13] = assay: In vitro cytotoxicity against Renal A-498 human tumors following a 6 day exposure.; type: functional; settings: A498, 144 h, read-out: ED50 (the source's name)
NCI [14] = assay: In vitro cytotoxicity against a subset of 10 cell lines (NCI-10) in human tumors following a 2 day exposure; ND is no data; type: functional; settings: 48 h

Structure (SMILES) | IC50 (P388) [nM] | GI50 (RXF 393) [nM] | GI50 (SF-295) [nM] | GI50 (NCI [1]) [nM] | GI50 (IGROV-1) [nM] | GI50 (A498 [2]) [nM] | GI50 (HL-60) [nM] | EC50 (HT-29 [3]) [nM] | EC50 (Homo sapiens [4]) [nM] | GI50 [5] [nM] | GI50 (LOX IMVI) [nM] | GI50 (PC-3 [6]) [nM] | GI50 (HT-29 [7]) [nM] | GI50 (MCF7) [nM] | GI50 (A549 [8]) [nM] | other results
CC(=O)O[C@H]1CC2Cc3nc4c(nc3C[C@]2(C)C2C[C@@H](O)[C@@]3(C)C(=CC5O[C@]6(CC[C@](C)(O)CO6)[C@@H](C)C53O)C21)CC1CCC2C(C[C@@H](O)[C@@]3(C)C2CC2OC5(CCC(C)(C)O5)[C@@H](C)C23)[C@@]1(C)C4 (stereo partly specified) | 96 | – | – | – | – | – | – | – | – | – | – | – | – | – | – | –
C[C@H]1C2C(CC3C4CCC5Cc6nc7c(nc6C[C@]5(C)C4CC(=O)[C@@]32C)CC2CC(=O)C3C4=CC5O[C@]6(CC[C@](C)(O)CO6)[C@@H](C)C5(O)[C@@]4(C)[C@H](O)CC3[C@@]2(C)C7)OC12CCC(C)(C)O2 (stereo partly specified) | 19 | – | – | – | – | – | – | – | – | – | – | – | – | – | – | –
CC1C2(O)C(C=C3C4CCC5Cc6nc7c(nc6C[C@]5(C)C4C[C@@H](O)[C@@]32C)CC2CCC3C4=CC5OC6(CCC(C)(C)O6)[C@@H](C)C5[C@@]4(C)[C@H](O)CC3[C@@]2(C)C7)O[C@]12CC[C@](C)(O)CO2 (stereo partly specified) | – | 0.55 | 1.2 | 4.2 | > 1000 | 0.55 | 1.2 | 0.012 | 0.036 | > 34 | 12 | 12 | > 650 | 37 | 76 | –
C[C@@H]1C2(OC3C=C4C5CCC6Cc7nc8c(nc7C[C@]6(C)C5C[C@@H](O)[C@]4(C)C31O)CC1CCC3C4=CCC5[C@H](C)[C@@]6(OC[C@]45[C@H](O)CC3[C@@]1(C)C8)OC(C)(C)C[C@H]6O)O[C@](C)(CO)C[C@H]2O (stereo partly specified) | – | – | – | – | – | – | – | 0.0012 | 0.0011 | – | – | – | – | – | – | –
C[C@H]1C2C(C[C@H]3C4CCC5Cc6nc7c(nc6C[C@]5(C)C4C[C@@H](O)[C@]23C)CC2CCC3C4=CC5O[C@]6(CC[C@](C)(O)CO6)[C@@H](C)C5(O)[C@@]4(C)[C@H](O)CC3[C@@]2(C)C7)OC12CCC(C)(C)O2 (stereo partly drawn) [14-EPI-7'-DEOXYRITTERAZINE B] | – | 4.1 | 9.3 | > 55 | > 1000 | > 300 | > 660 | – | – | > 105 | 45 | 40 | > 650 | 56 | 76 | –
C[C@@H]1[C@]2(O[C@H]3C=C4[C@@H]5CC[C@H]6Cc7nc8c(nc7C[C@]6(C)[C@H]5C[C@@H](O)[C@]4(C)[C@]31O)C[C@@H]1CC[C@H]3C4=CC[C@@H]5[C@H](C)[C@@]6(OC[C@]45C(=O)C[C@@H]3[C@@]1(C)C8)OC(C)(C)C[C@H]6O)O[C@](C)(CO)C[C@H]2O [CEPHALOSTATIN 1] | – | < 0.1 | < 0.1 | 0.8 | 10 | < 0.1 | 0.2 | – | – | 1.2 | 0.4 | < 0.1 | 6.3 | 2.5 | 0.4 | –
C[C@@H]1[C@]2(O[C@H]3C=C4[C@@H]5CC[C@H]6Cc7nc8c(nc7C[C@]6(C)[C@H]5C[C@@H](O)[C@]4(C)[C@]31O)C[C@@H]1CC[C@H]3C4=C[C@@H]5O[C@]6(CC[C@](C)(O)CO6)C[C@]5(O)[C@@]4(C)[C@H](O)C[C@@H]3[C@@]1(C)C8)O[C@](C)(CO)C[C@H]2O [CEPHALOSTATIN 7] | – | 7.9 | 11 | 16 | 480 | 31 | 25 | 30 | 38 | 50 | 37 | 23 | 271 | 27 | 138 | EC50 [9]: 0.41 nM; EC50 (Homo sapiens [10]): 0.052 nM; EC50 (PC-3 [11]): 0.0021 nM
C[C@@H]1C2(OC3C=C4C5CCC6Cc7nc8c(nc7C[C@]6(C)C5C[C@@H](O)[C@]4(C)C31O)CC1CCC3C(CC(=O)[C@]45CO[C@@]6(OC(C)(C)C[C@H]6O)[C@@H](C)C4CCC35)[C@@]1(C)C8)O[C@](C)(CO)C[C@H]2O (stereo partly specified) [DIHYDROCEPHALOSTATIN 1] | – | < 0.1 | < 0.1 | 0.8 | 2.9 | 3.6 | 0.12 | – | – | 2.4 | 0.17 | 0.22 | 1.1 | 3.5 | 0.59 | –
COc1cccc2c1C(=O)c1c(O)c3c(c(O)c1C2=O)C[C@@](O)(C(=O)CO)C[C@@H]3O[C@H]1C[C@H](N)[C@H](O)[C@H](C)O1 [DOXORUBICIN] | – | – | – | – | – | – | – | 37 | 150 | – | – | – | – | – | – | EC50 (A549 [12]): 6.2 nM; EC50 (MIA PaCa-2): 6.3 nM; EC50 (A498 [13]): 3.5 nM; EC50 (Homo sapiens [10]): 18.7 nM; EC50 (PC-3 [11]): 57 nM
C[C@@H]1[C@@]2(CC[C@](C)(O)CO2)O[C@H]2C=C3[C@@H]4[C@@H](O)C[C@H]5Cc6nc7c(nc6C[C@]5(C)[C@H]4C[C@@H](O)[C@]3(C)[C@]21O)C[C@@H]1CC[C@H]2[C@H]3C[C@@H]4O[C@@]5(CCC(C)(C)O5)C[C@@H]4[C@@]3(C)[C@H](O)C[C@@H]2[C@@]1(C)C7 [RITTERAZINE B] | 0.17 | < 0.1 | < 0.1 | – | – | – | 0.16 | – | 0.0021 | – | – | – | – | – | – | GI50 (NCI [14]): 1 nM
C[C@@H]1[C@@]2(CC[C@](C)(O)CO2)O[C@H]2C=C3[C@@H]4[C@@H](O)C[C@H]5Cc6nc7c(nc6C[C@]5(C)[C@H]4C[C@@H](O)[C@]3(C)[C@]21O)C[C@@H]1CC[C@H]2[C@H]3C[C@@H]4O[C@@]5(CCC(C)(C)O5)C[C@@H]4[C@@]3(C)C(=O)C[C@@H]2[C@@]1(C)C7 [RITTERAZINE H] | 18 | – | – | – | – | – | – | – | – | – | – | – | – | – | – | –
C[C@@H]1[C@@]2(CC[C@](C)(O)CO2)O[C@H]2C=C3[C@@H]4[C@@H](O)C[C@H]5Cc6nc7c(nc6C[C@]5(C)[C@H]4C[C@@H](O)[C@]3(C)[C@]21O)C[C@@H]1CC[C@H]2C3=C[C@@H]4O[C@]5(CC[C@@](C)(O)CO5)[C@@H](C)[C@]4(O)[C@@]3(C)[C@H](O)C[C@@H]2[C@@]1(C)C7 [RITTERAZINE J] | 14 | – | – | – | – | – | – | – | – | – | – | – | – | – | – | –
C[C@@H]1[C@@]2(CC[C@](C)(O)CO2)O[C@H]2C=C3[C@H]4CC[C@H]5Cc6nc7c(nc6C[C@]5(C)[C@H]4C[C@@H](O)[C@]3(C)[C@]21O)C[C@@H]1CC[C@H]2C3=C[C@@H]4O[C@]5(CC[C@@](C)(O)CO5)[C@@H](C)[C@]4(O)[C@@]3(C)[C@H](O)C[C@@H]2[C@@]1(C)C7 [RITTERAZINE K] | 10 | 1.4 | 4.1 | 4.5 | 347 | 190 | 4.4 | 28 | 11 | 96 | 20 | 91 | 288 | 100 | 110 | EC50 (MIA PaCa-2): 0.051 nM; EC50 (Homo sapiens [10]): 0.047 nM; EC50 (PC-3 [11]): 0.0021 nM
C[C@@H]1C2(OC3C=C4C5CCC6Cc7nc8c(nc7C[C@]6(C)C5C[C@@H](O)[C@]4(C)C31O)CC1CCC3C4=CC5OC6(CCC(C)(C)O6)[C@@H](C)C5[C@@]4(C)[C@H](O)CC3[C@@]1(C)C8)O[C@](C)(CO)C[C@H]2O (stereo partly specified) [RITTEROSTATIN] | – | 0.1 | 0.99 | 3.8 | 140 | 3 | 1.6 | – | – | 14 | 9.7 | 1.8 | 65 | 3.4 | 7.4 | –
